Source: patent US20230416304A1, “TETRAPEPTIDE AND COMPOSITIONS COMPRISING TETRAPEPTIDES” (THE BOOTS COMPANY PLC, priority 2020, published 2023)
The star is where a group is joined. Palmitoyl = CCCCCCCCCCCCCCCC(=O)*

Assays:
SOD1 = experiment: LC-MS/MS relative protein abundance in HDF secretome/matrisome: SOD1; format: cell-based, human; conditions: HDFs, peptide 8 ppm, seven-day culture, secretome + matrisome
Experimental: (§1) Following incubation with the peptides, liquid chromatography tandem mass spectrometry (LC-MS/MS) was used to quantify the relative abundance differences between proteins identified in the secretome/matrisome, versus an untreated control. HDFs from a donor, plated at 50,000 cells per well, were cultured with either peptide dissolved in cell culture media to achieve a final concentration of 8 ppm or with media without any peptide as a negative control. Treated and control cells were tested in triplicate. The cells were cultured as normal for five days in serum-supplemented media and then for a further two days in serum-free media (seven-day culture in total). The cell media containing the secretome (the proteins secreted by the cell) and the ECM, decellularized by incubation with EDTA (ethylenediaminetetraacetic acid), containing the matrisome (the collection of ECM associated proteins) were collected. The combined secretome and the matrisome compartments were subsequently analysed by LC-MS/MS using the following protocol.
(§2) Proteins were denatured (in urea), reduced (in dithiothreitol) and mechanically disassociated (using ultrasonication) prior to overnight digestion with trypsin (SMART Digest™ trypsin kit; Thermo Fisher). After digestion, samples were cleaned of contaminants up by removal of organic molecules and surfactants using biphasic extraction and desalted using OLIGO™ R3 Reversed Phase Resin (Thermo Fisher).
(§3) Samples (200 ng) were ran on an UltiMate® 3000 Rapid Separation Liquid Chromatographer coupled to a Q Exactive™ Hybrid Quadrupole-Orbitrap™ Mass Spectrometer for 90-minutes per sample run. Spectral data was searched again the Uniprot Human proteome database using Mascot v2.5.1. Subsequent protein identification and data-dependent quantification was performed using Progenesis QI. Normalised protein abundances were compared between each peptide treatment and control. Statistical analysis was performed within Progenesis QI using a between sample ANOVA.
(§4) The mass spectrometry data for each peptide is shown below in table 3 and FIG. 1. Changes in protein synthesis abundance due to each peptide are described below, including changes to specific proteins and the protein families they belong to (table 3). […] These protein families were as follows: antioxidants, cell stress proteins, ECM cleaving enzymes and ECM adhesion proteins; functional protein families all with a potentially important role in dermal repair and remodelling.

human dermal fibroblasts = experiment: LC-MS/MS overall protein synthesis and functional protein families in HDFs (FIG. 1 bubble plot); format: cell-based; conditions: peptide 8 ppm, seven-day culture
Experimental: as §1, §2, §3, §4
In the bubble plot, the larger the bubble size, the stronger the enhancement of proteins within that protein family.

HSPA8 = experiment: LC-MS/MS relative protein abundance in HDF secretome/matrisome: HSPA8; format: cell-based, human; conditions: HDFs, peptide 8 ppm, seven-day culture, secretome + matrisome
Experimental: as §1, §2, §3, §4

HSP90B1 = experiment: LC-MS/MS relative protein abundance in HDF secretome/matrisome: HSP90B1; format: cell-based, human; conditions: HDFs, peptide 8 ppm, seven-day culture, secretome + matrisome
Experimental: as §1, §2, §3, §4

PRDX4 = experiment: LC-MS/MS relative protein abundance in HDF secretome/matrisome: PRDX4; format: cell-based, human; conditions: HDFs, peptide 8 ppm, seven-day culture, secretome + matrisome
Experimental: as §1, §2, §3, §4

CTSL = experiment: LC-MS/MS relative protein abundance in HDF secretome/matrisome: CTSL; format: cell-based, human; conditions: HDFs, peptide 8 ppm, seven-day culture, secretome + matrisome
Experimental: as §1, §2, §3, §4

CD44 = experiment: LC-MS/MS relative protein abundance in HDF secretome/matrisome: CD44; format: cell-based, human; conditions: HDFs, peptide 8 ppm, seven-day culture, secretome + matrisome
Experimental: as §1, §2, §3, §4

Fibronectin = experiment: ELISA of fibronectin in culture supernatant of human dermal fibroblasts; format: cell-based; conditions: HDFs, 72 hours, ELISA weighted to viable cells
Experimental: (§5) An ELISA is an immunological assay commonly used to measure presence and abundance of a specific proteins (antibodies, antigens, proteins and glycoproteins) in biological samples. In this case ELISAs are being used to quantify the expression of dermal extracellular proteins collagen-1, decorin and fibronectin. The quantity of collagen I is evaluated via the quantity of PIP (“carboxU-terminal pro-peptide of procollagen type I”) which is a peptide fragment resulting from the enzymatic degradation of procollagen present outside the fibroblast in the culture supernatant medium.
(§6) For all experiments, the control liquid stock was prepared by dissolving the powdered peptides in DMSO (Dimethyl Sulfoxide solvent). Peptide powders were dissolved in DMSO at recommended part per million concentrations and then further diluted in the cell culture medium and combined to obtain the desired peptide ratio.
(§7) Normal human dermal fibroblasts cells (HDFs) were cultured in contact with the tetrapeptides of the present invention, or composition without the peptide (negative control), for 72 hours. Thereafter the cultured supernatants were removed, and the quantity of dermal extracellular proteins determined using an ELISA assay for the protein of interest. For the ELISA quantification, cell viability was calculated using Hoechst staining allowing the quantity of dermal proteins to be weighted to the number of viable cells.
(§8) The effect of LSXX tetrapeptides on ECM protein expression by fibroblasts as measured by ELISA (columns 1 to 3) versus a tetrapeptide not conforming to the LSXX structure (column 4) are presented in the table below (table 1). Results are expressed as % increase versus the negative control.

Fibrillin-1 = experiment: Immunofluorescence of Fibrillin-1 expression by HDF cells; format: cell-based, human; conditions: HDFs, 5 days
Experimental: Immunofluorescence relies on the use of antibodies to label a specific protein with a fluorescent dye such as fluorescein isothiocyanate (FITC). In the following experiments, indirect immunofluorescence is used where a primary antibody first recognises and attaches to the specific protein, in this case fibrillin-1, and then a secondary antibody conjugated with FITC directed against the primary antibody is used for detection.
as §6
Fibrillin-1 expression was determined using immunofluorescence. Primary human dermal fibroblast (HDF) cells were purchased from Promo Cell and came from a donor. Cells were grown in wells of 96 well black walled clear bottomed plates (Peirce, Thermo Fisher). Cells were cultured in HDF media (PromoCell) supplemented with Basic Fibroblast Growth Factor (recombinant human), 1 ng/ml and Insulin 5 μg/ml. Cells were cultured for 5 days in the presence of the tetrapeptides, changing media and peptides every 48 hours, followed by immunofluorescence assessment. At the time of treatment cells were at passage 3-4. After 5 days the media was discarded, and cells fixed with methanol. The Fibrillin-1 fibre formation was probed using primary Fibrillin-1 monoclonal antibody (11C1.3; mouse monoclonal antibody (Thermo Fisher) 1 in 100 dilution overnight) designed to detect Fibrillin-1 protein. The Fibrillin-1 fibre formation was then probed with a secondary Goat anti-mouse IgG Thermo Fisher (1 part antibody in 1000 buffer solution for 1 hour) which includes a fluorescent tag designed to reveal the primary antibody binding pattern.
The antibody binding to Fibrillin-1 fibres was visualised using a Nikon Eclipse 100 microscope fluorescence setting using an excitation lens for fluorescein isothiocyanate (FITC). Images were taken using 6 second UV exposure. ImageJ software was used to quantify the Fibrillin-1 fibre abundance and coverage in each image using a threshold of 235 measuring the fibre density.
Results are expressed as a percentage increase in fibrillin abundance compared to untreated control.
Fibrillin-1 expression by HDF cells treated with tetrapeptides conforming to the LSXX structure (Pal-LSPG-OH, Pal-LSPD-OH and Pal-LSVD-OH) and a tetrapeptide not conforming to the LSXX structure (Pal-GYIL-OH), are presented in the table below (table 2). The peptide concentration used offered the highest yield of Fibrillin-1 production.

Collagen I (PIP) = experiment: ELISA of Collagen I (PIP) in culture supernatant of human dermal fibroblasts; format: cell-based; conditions: HDFs, 72 hours, ELISA weighted to viable cells
Experimental: as §5, §6, §7
The quantity of Collagen I is evaluated via the quantity of PIP (“carboxU-terminal pro-peptide of procollagen type I”) which is a peptide fragment resulting from the enzymatic degradation of procollagen present outside the fibroblast in the culture supernatant medium.
as §8

Decorin = experiment: ELISA of decorin in culture supernatant of human dermal fibroblasts; format: cell-based; conditions: HDFs, 72 hours, ELISA weighted to viable cells
Experimental: as §5, §6, §7, §8

| CTSL (ECM cleaving enzymes) protein enhanced versus untreated control (CTSL) | Substance | SOD1 (Antioxidants) protein enhanced versus untreated control (SOD1) | overall protein synthesis / expression in comparison to the control (human dermal fibroblasts) | HSPA8 (Cell stress) protein enhanced versus untreated control (HSPA8) | HSP90B1 (Cell stress) protein enhanced versus untreated control (HSP90B1) | PRDX4 (Antioxidants) protein enhanced versus untreated control (PRDX4) | CD44 (ECM adhesion) protein enhanced versus untreated control (CD44) | Fibronectin, % increase versus the negative control (Fibronectin; peptide 5 ppm) | Fibrillin-1, percentage increase in fibrillin abundance compared to untreated control (Fibrillin-1; peptide 10 ppm) | Collagen I (PIP), % increase versus the negative control (Collagen I (PIP); peptide 5 ppm) | Decorin, % increase versus the negative control (Decorin; peptide 5 ppm) | Fibrillin-1, percentage increase in fibrillin abundance compared to untreated control (Fibrillin-1; peptide 4 ppm) | Fibronectin, % increase versus the negative control (Fibronectin; peptide 3 ppm) | Fibrillin-1, percentage increase in fibrillin abundance compared to untreated control (Fibrillin-1; peptide 8 ppm) | Collagen I (PIP), % increase versus the negative control (Collagen I (PIP); peptide 3 ppm) | Decorin, % increase versus the negative control (Decorin; peptide 3 ppm) |
| --- | --- | --- | --- | --- | --- | --- | --- | --- | --- | --- | --- | --- | --- | --- | --- | --- |
| ns | Pal-EKGD-OH [reference compound] | ns | no or limited protein expression | ns | ns | ns | +29% | – | – | – | – | – | – | – | – | – |
| – | Pal-GYIL-OH [reference compound] | – | – | – | – | – | – | −23% | +3% | −4% | +2% | – | – | – | – | – |
| – | Pal-LSPD-OH (Palmitoyl-LSPD-OH; SMILES CCCCCCCCCCCCCCCC(=O)N[C@@H](CC(C)C)C(=O)N[C@@H](CO)C(=O)N1CCC[C@H]1C(=O)N[C@@H](CC(=O)O)C(=O)O) [N-palmitoyl tetrapeptide Leu-Ser-Pro-Asp, free C-terminus; LSXX tetrapeptide of the invention] | – | – | – | – | – | – | +92% | – | +82% | +24% | +98% | – | – | – | – |
| +107% | Pal-LSPG-OH (Palmitoyl-LSPG-OH; SMILES CCCCCCCCCCCCCCCC(=O)N[C@@H](CC(C)C)C(=O)N[C@@H](CO)C(=O)N1CCC[C@H]1C(=O)NCC(=O)O) [N-palmitoyl tetrapeptide Leu-Ser-Pro-Gly, free C-terminus; LSXX tetrapeptide of the invention] | +50% | overall enhancement of protein synthesis | +46% | +105% | +362% | +120% | – | – | – | – | – | +82% | +111% | +25% | +39% |
| +42% | Pal-LSVD-OH (Palmitoyl-LSVD-OH; SMILES CCCCCCCCCCCCCCCC(=O)N[C@@H](CC(C)C)C(=O)N[C@@H](CO)C(=O)N[C@H](C(=O)N[C@@H](CC(=O)O)C(=O)O)C(C)C) [N-palmitoyl tetrapeptide Leu-Ser-Val-Asp, free C-terminus; LSXX tetrapeptide of the invention] | +35% | overall enhancement of protein synthesis | +48% | +49% | +120% | +57% | +24% | +151% | +29% | +131% | – | – | – | – | – |
| +18% | Pal-QTAV-OH [reference compound] | ns | no or limited protein expression | +18% | +30% | ns | +32% | – | – | – | – | – | – | – | – | – |
